Like-named read-outs stand apart in the source and are kept apart here.

Data set [1] deals with Wistar rats. Description: Anti-edema Activity (carrageenin foot edema). In kind it is in vivo, Wistar rat. The note with it: Rattus norvegicus, read-out: Anti-edema ED (30%). The protocol: An aqueous solution of 1% carrageenin (0.05 ml) is used as phlogistic agent. After 30 minutes Wistar rats (180-200 g, female) are orally administered test compounds, the phalogistic agent is injected subcutaneously into the plantar parts of the foot of rats. The volume of swelling is measured 3 hours after carrageenin, and the anti-edema activity is determined by calculating the ratio of the edematous volume of medicated foot to that of non-medicated foot. […]

Data set [2] has as its system Wistar rats. Description: Anti-abscess Activity (carrageenin). In kind it is in vivo, Wistar rat. The note with it: Rattus norvegicus, read-out: Anti-abscess ED (25%). The protocol: Carrageenin (2% aqueous solution, 0.5 ml) is subcutaneously injected into the back of Wistar rats (180-200 g, female) and at the same time one-half dose of a test compound is orally given, the other half given 3 hours later. The animals are sacrificed 24 hours after carrageenin and the abscess formed is isolated and weighed. The ED25 is calculated by the Bliss' method.

In data set [3] the test system is Wistar rat. Description: Anti-granuloma Activity (carrageenin filterpaper). It counts as in vivo. The note with it: 168 h. Here is the method: 3. Anti-granuloma Activity
Two circular pieces of filterpaper about 6 mm in diameter, soaking 90 mg of 5% carrageenin solution, are implanted subcutaneously in the abdominal skin of Wistar rat (180-200 g, female). A test drug is orally given once a day for 6 consecutive days. On the 7th day the animals are killed and the amount of granulation tissue deposited, the adrenals and the thymus are weighed. The ED25 is calculated by the Bliss' method.

The next data set relates to guinea-pig. Put plainly: Anti-erythema Activity (ultraviolet light). In kind it is in vivo. Here is the method:
4. Anti-erythema Activity
The hair on the back of guinea-pig (300-400 g, male and female) is removed on the day before experiment. Thirty minutes after oral administration of a test drug, 3 circular areas (8 mm in diameter each) on the back of the animal are exposed to ultraviolet light for 60 seconds. Anti-erythema activity is evaluated at 2 hours after irradiation. The ED50 is calculated by Up and Down method of Brownlee et al. [J. Am. Stat. Assoc.

The test system of data set [4] is Wistar rat. Description: Effect on Adjuvant Arthritis. In kind it is in vivo. The note with it: 120 h. Here is the method: 5. Effect on Adjuvant Arthritis
A test compound is orally administered to the arthritic rat twice a day for 5 consecutive days. Five hours after the final medication the change in swelling volume of the arthritic foot is measured. The ED30 is calculated by the Bliss' method.

In a further data set the test system is DS mice. Description: Acetic Acid Writhing Method. In kind it is in vivo. The note with it: Mus musculus, read-out: Acetic Acid Writhing ED (50%). The protocol: 6. Acetic Acid Writhing Method
DS mice (20-23 g, male) are treated with an intraperitoneal injection of 0.1 ml/10 g of 0.6% acetic acid 60 minutes after oral administration of a test drug. The number of times of writhing for 10 minutes is counted. The ED50 is calculated by the Bliss' method.
For orientation: In writhing tests, fewer writhes than in controls are read as antinociception.

Data set [5] concerns Wistar rat. Description: Effect of Scald-inflamed Foot. It counts as in vivo. The note with it: 1.5 h, read-out: Scald-inflamed Foot ED (100%). Here is the method: 7. Effect of Scald-inflamed Foot
A test drug is administered orally 90 minutes after scalding and the analgesic activity is evaluated by compressing the foot with a plunger.

Data set [6] relates to Wistar rat. Put plainly: Effect on Yeast-inflamed Foot. In kind it is in vivo. The following applies: 2 h, oral, pain threshold two hours later, ED 100%. Here is the method: 8. Effect on Yeast-inflamed Foot
A test compound is orally given Wistar rat (180-200 g, female) immediately before subcutaneous injection of 0.1 ml of 20% yeast suspension into the plantar tissue of the foot. Two hours later, the pain threshold is measured by comprissing the foot with a plunger and calculated by the method of Litchfield and Wilcoxon.

Data set [7] concerns Wistar rat. Description: Foot-licking Method (formaldehyde). In kind it is in vivo. The protocol: Thirty minutes after oral administration of a test drug in Wistar rat (180-200 g, female), the effect of the compound on foot-licking syndrome due to irritation by a subcutaneous injection of 0.05 ml of 3.75% formaldehyde into the plantar tissue of the hind-paw is observed for 50 minutes. The ED50 is calculated by the method of Litchfield and Wilcoxon.

The next data set relates to Wister rat. Put plainly: Anti-pyretic Activity (yeast). It counts as in vivo. The following applies: read-out: Anti-pyretic Activity, dose by which body temperature is reduced 0.5° C. Here is the method:
11. Anti-pyretic Activity
A test compound is orally administered to Wister rat (180-200 g, female) 16 hours after an injection of 2 ml of 15% suspension of yeast into the subcutaneous tissue of the hip of the rat. The rectal temperature is measured every 1 hour for 5 hours. The effective dose is calculated by the Bliss' method.

Data set [8] in a line: in vivo. The following applies: mouse, po.
A short description of data set [9]: in vivo. The note with it: rat, po.
[10] abbreviates: oral, swelling 3 hours after carrageenin, ED 30%.
Setting [11] is: oral, two half doses, 24 hours after carrageenin, ED25.
The mark [12] stands for this setting: oral once a day for 6 days, ED25, read-out: Anti-granuloma ED (25%).
Setting [13] is: Cavia porcellus, light or radiation study, po, 2 h; read-out: Anti-erythema ED (50%).
Where [14] appears, read: oral twice a day for 5 days, ED30, read-out: Arthritis ED (30%).
Setting [15] is: oral, 60 minutes before 0.6% acetic acid i.p., ED50.
Setting [16] is: oral, 90 minutes after scalding, pain threshold, ED 100%.
The mark [17] stands for this setting: oral, thirty minutes before formaldehyde, ED50, read-out: Footlicking ED (50%).
Where [18] appears, read: oral, 16 hours after yeast injection.

As to `CC(=O)Oc1ccccc1C(=O)O` [Acetylsalicylic Acid, acetylsalicylic acid], the ED30 turned out to be 48 mg/kg with Wistar rats [1] (po, 3 h) and 100 mg/kg in the data set with Wistar rat [4] (po, read-out: Arthritis ED (30%)). For the same compound, the ED25 with Wistar rats [2] (po, 24 h) is 175 mg/kg; with Wistar rat [3] (po, read-out: Anti-granuloma ED (25%)) it was greater than 500 mg/kg. Also, the ED50 stood at 79 mg/kg with guinea-pig (Cavia porcellus, light or radiation study, po, 2 h, read-out: Anti-erythema ED (50%)); 180 mg/kg in the data set with DS mice (po); 580 mg/kg in the data set with Wistar rat [7] (po, read-out: Footlicking ED (50%)). In addition, the ED100 in the data set with Wistar rat [5] (po) came out at 260 mg/kg; in the data set with Wistar rat [6], 250 mg/kg. In the data set with Wister rat (po, 16 h), the ED (0.5 degC reduction) was 14 mg/kg. In addition, the results for the LD50 at 72 h in “in vivo [8]” and in the data set “in vivo [9]” were 2000 mg/kg and 2400 mg/kg, respectively.

As to `Cc1nc(Oc2ccccc2)sc1C(C)C(=O)O` (centres unmarked) [Example 48-140, calcium 2-(2-phenoxy-4-methyl-5-thiazolyl)propionate], the ED30 in the data set with Wistar rats [1] (setting [10]) was found to be 14 mg/kg; in the data set with Wistar rat [4] (setting [14]), 20 mg/kg. Also, the figures for the ED25 with Wistar rats [2] (setting [11]) and with Wistar rat [3] (setting [12]) were 60 mg/kg and 230 mg/kg, respectively. Moreover, the ED50 in the data set with guinea-pig (setting [13]) stood at 27 mg/kg; in the data set with DS mice (setting [15]), 180 mg/kg; in the data set on Wistar rat [7] (setting [17]), 130 mg/kg. For the same compound, the ED100 with Wistar rat [5] (setting [16]) was greater than 500 mg/kg; in the data set on Wistar rat [6], 110 mg/kg. Moreover, the ED (0.5 degC reduction) with Wister rat (setting [18]) came to 23 mg/kg. For the same compound, the LD50 (as a rule, the dose expected to kill half of the subjects tested) at 72 h in the data set “in vivo [8]” was 1190 mg/kg; in “in vivo [9]”, 1200 mg/kg.

Take `CC(C(=O)O)c1ccc(Oc2nccs2)cc1` (centres unmarked) [Example 48-156, 2-[4-(2-thiazolyloxy)phenyl]propionic acid]: the ED30 came out at 3.8 mg/kg in the data set with Wistar rats [1] (setting [10]) and 4.2 mg/kg in the data set with Wistar rat [4] (setting [14]). Besides, the ED25 in the data set with Wistar rats [2] (setting [11]) is 6.4 mg/kg; with Wistar rat [3] (setting [12]), 13 mg/kg. The ED50 in the data set with guinea-pig (setting [13]) turned out to be 20 mg/kg; in the data set on DS mice (setting [15]), 20 mg/kg; with Wistar rat [7] (setting [17]), 175 mg/kg. Moreover, the ED100 stood at 77 mg/kg in the data set with Wistar rat [5] (setting [16]) and 28 mg/kg in the data set with Wistar rat [6]. Also, in the data set with Wister rat (setting [18]), the ED (0.5 degC reduction) is 4 mg/kg.

For `CCCCC1C(=O)N(c2ccccc2)N(c2ccccc2)C1=O` [Phenylbutazone, phenylbutazone], the ED30 was 48 mg/kg with Wistar rats [1] (setting [10]) and 7.8 mg/kg in the data set with Wistar rat [4] (setting [14]). In addition, the ED25 with Wistar rats [2] (setting [11]) is 33 mg/kg; in the data set with Wistar rat [3] (setting [12]), 24 mg/kg. Besides, the ED50 came to 26 mg/kg in the data set with guinea-pig (setting [13]), 440 mg/kg in the data set on DS mice (setting [15]) and 150 mg/kg with Wistar rat [7] (setting [17]). In addition, the figures for the ED100 with Wistar rat [5] (setting [16]) and in the data set on Wistar rat [6] were 240 mg/kg and 130 mg/kg, respectively. For the same compound, in the data set with Wister rat (setting [18]), the ED (0.5 degC reduction) was determined as 3.8 mg/kg.
